The record followed here is publication PMC6222382, “A Potent Tyrosinase Inhibitor, (E)-3-(2,4-Dihydroxyphenyl)-1-(thiophen-2-yl)prop-2-en-1-one, with Anti-Melanogenesis Properties in α-MSH and IBMX-Induced B16F10 Melanoma Cells” (Molecules : A Journal of Synthetic Chemistry and Natural …, 2018).

SMILES strings stand for the structures. Where two headings read alike, the source gives them in different places.

Broadly, the melting point is the temperature, or range, at which the solid turns liquid. By Ki is commonly meant the equilibrium dissociation constant of an inhibitor or competing ligand from its target. High values mean weaker binding, low ones tighter binding.

Series [1] has as its target mushroom tyrosinase. The experiment in a line: Mushroom tyrosinase inhibitory assay (L-tyrosine or L-DOPA as substrate). Type of series: biochemical. The following applies: for IC50: mean ± SEM of triplicate experiments; for tyrosinase inhibitory activity toward L-DOPA (in words): at any of the tested concentrations. How it is done: The reaction mixtures were keep warm at 37 °C for 20 min. The absorbance of the mixture at 492 nm was measured using a microplate reader. The tyrosinase inhibitory activity (%) was calculated as (1 − Abssample/Abscontrol) × 100%.

Series [2] has as its system B16F10 melanoma cells. The experiment in a line: Melanin contents in α-MSH and IBMX-induced B16F10 melanoma cells. Type of series: cell-based, murine. The settings on record: α-MSH (5 μM) and IBMX (200 μM), 48 h, α-MSH and IBMX alone 171.30%. How it is done: (§1) Murine melanoma B16F10 cells were purchased from the Korean Cell Line Bank (Seoul, Korea). The cells were cultured in DMEM containing 10% FBS and 1% streptomycin, and then incubated at 37 °C with 5% CO2. The melanoma cells were plated at 95% confluency for all the experiments.
Cellular melanin content was determined as described previously. Cells were seeded in six-well culture plates (Nunc, Denmark) at 2 × 10^5 cells/well for 24 h. […] Cells were washed twice with PBS. After centrifugation, cell pellets were disrupted in 100 μL of 1N NaOH, and incubated at 60 °C for 1 h and mixed to solubilize the melanin. Absorbance at 405 nm was compared with a standard curve for synthetic melanin (TECAN, Salzburg, Austria).

Series [3] deals with intracellular tyrosinase in B16F10 melanoma cells. The experiment in a line: Cellular tyrosinase activity assay in α-MSH and IBMX-induced B16F10 melanoma cells (L-DOPA oxidation). Type of series: cell-based, murine. The settings on record: α-MSH (5 μM) and IBMX (200 μM), 48 h, α-MSH and IBMX alone 310.39%. The method, then: as §1
Intracellular tyrosinase inhibitory activity assay was achieved by measuring the rate of oxidation of L-DOPA [44]. Cells at a density of 1 × 10^5 cells/well were plated in 6-well plates (Nunc, Denmark) and incubated overnight. […] The cells were washed with PBS and lysed in a solution containing 100 µL of 50 mM phosphate buffer (pH 6.5), 0.1 mM phenylmethylsulfonylfluoride (PMSF), and 1% Triton X-100. The cells lysates were employed in a deep freezer (−80 °C) for 1 h. After defrosting the cell lysates, the cellular extracts were purified by centrifugation at 12,000 rpm for 30 min at 4 °C. A total of 80 µL of supernatant and 20 µL of L-DOPA (2 mg/mL) were added to a 96-well plate, and the absorbance at a wavelength of 492 nm was measured every 10 min during 1 h using an ELISA plate reader (TECAN, Salzburg, Austria). Total protein content was determined using BCA protein assay reagent (Thermo Scientific, Rockford, IL, USA).

Series [4] deals with mushroom tyrosinase. The experiment in a line: Enzyme kinetic analysis in mushroom tyrosinase inhibition (Lineweaver-Burk and Dixon plots). The format is biochemical. The settings on record: for Ki: Dixon plot; for Inhibition type: Lineweaver-Burk plot. The method, then:
In order to estimate the kinetic mechanism, two kinetic methods using Lineweaver-Burk and Dixon plots were used. Using Lineweaver-Burk double reciprocal plots [a plot of 1/enzyme velocity (1/V) vs. 1/substrate concentration (1/[S])], the type of inhibition was determined using various concentrations of L-tyrosine (0.5, 1 and 2 mM) and L-DOPA (0.5, 1, and 2 mM), as substrates, in the absence and presence of various concentrations of 1c (3.2–80 nM; for L-tyrosine, 0.4–10 μM; for L-DOPA). […] The concentrations of 1c were as follows: 3.2–80 nM; for L-tyrosine, 0.4–10 μM; for L-DOPA. The enzymatic procedures comprised of the formerly described tyrosinase test methods. The inhibition constant (Ki) was resolute using Dixon plots.

The subject of series [5] is B16F10 melanoma cells. The series can be described thus: Cell viability, EZ-Cytox assay. The format is cell-based, murine. The settings on record: concentrations up to 100 μM, 48 h. The method, then:
as §1
Cell viability was assessed with the EZ-Cytox assay kit (Daeillab Service, Seoul, Korea) as previously described. In brief, B16F10 cells were seeded in 96-well plates (Corning, NY, USA) at a density of 1 × 10^4 cells/well for 24 h. The cells were fed fresh, serum-free DMEM that contained different concentrations (up to 100 μM) of 1c, and incubated for 24 h or 48 h. Then, 10 μL EZ-Cytox solution was added to each well and the cells were incubated for 2–4 h. The absorbance of cells in the absence of treatment was regarded as 100% cell survival. […] Thus, CC50 value of 1c were calculated by regression analysis.

Where [6] appears, read: substrate L-DOPA, read-out: IC50 (μM), L-DOPA as substrate (diphenolase / dopa oxidase).
Where [7] appears, read: substrate L-tyrosine, read-out: IC50 (μM), L-tyrosine as substrate (monophenolase / tyrosine hydroxylase).

In the case of `O=C(/C=C/c1ccc(O)cc1)c1cccs1` [1a, (E)-3-(4-Hydroxyphenyl)-1-(thiophen-2-yl)prop-2-en-1-one], the figures for the IC50 at mushroom tyrosinase [1] (setting [6]) and on mushroom tyrosinase [1] (setting [7]) were 60.1 ± 7.85 µM and 46.2 ± 0.55 µM, respectively.
`COc1cc(/C=C/C(=O)c2cccs2)ccc1O` [1d, (E)-3-(4-Hydroxy-3-methoxyphenyl)-1-(thiophen-2-yl)prop-2-en-1-one] showed a melting point of 132.8 to 135.2 °C. Also, in the series on mushroom tyrosinase [1] (substrate L-DOPA), the “tyrosinase inhibitory activity toward L-DOPA (in words)” value is “did not inhibit tyrosinase activity”. The IC50 at mushroom tyrosinase [1] (setting [6]) is above 200 µM. For the same compound, the IC50 on mushroom tyrosinase [1] (setting [7]) was 98.8 ± 2.11 µM.
With `COc1ccc(/C=C/C(=O)c2cccs2)cc1O` [1e, (E)-3-(3-Hydroxy-4-methoxyphenyl)-1-(thiophen-2-yl)prop-2-en-1-one], the IC50 on mushroom tyrosinase [1] (setting [6]) was determined as 28.7 ± 1.98 µM; at mushroom tyrosinase [1] (setting [7]), 17.4 ± 1.81 µM.
Turning to `COc1cc(/C=C/C(=O)c2cccs2)cc(OC)c1O` [1f, (E)-3-(4-Hydroxy-3,5-dimethoxyphenyl)-1-(thiophen-2-yl)prop-2-en-1-one], the melting point lay in the range of 143.6 to 147.3 °C. The “tyrosinase inhibitory activity toward L-DOPA (in words)” value in the series with mushroom tyrosinase [1] (substrate L-DOPA) is reported as “did not inhibit tyrosinase activity”. Further, the IC50 on mushroom tyrosinase [1] (setting [6]) was above 200 µM. Further, the IC50 at mushroom tyrosinase [1] (setting [7]) stood at 77.9 ± 8.74 µM.
`O=c1cc(CO)occ1O` [Kojic acid, kojic acid, reference compound]: in the series with B16F10 melanoma cells [2] (10 μM), the melanin contents turned out to be 118.19%. Moreover, the intracellular tyrosinase activity in series [3] (10 μM) turned out to be 225.54%.
`O=C(/C=C/c1cc(Br)c(O)c(Br)c1)c1cccs1` [1h, (E)-3-(3,5-Dibromo-4-hydroxyphenyl)-1-(thiophen-2-yl)prop-2-en-1-one] displayed a melting point of 269.3 to 272 °C. The “tyrosinase inhibitory activity toward L-DOPA (in words)” value with mushroom tyrosinase [1] (substrate L-DOPA) is “did not inhibit tyrosinase activity”. In addition, on mushroom tyrosinase [1] (setting [6]), the IC50 was above 200 µM. For the same compound, in the series with mushroom tyrosinase [1] (substrate L-tyrosine), the “tyrosinase inhibitory activity toward L-tyrosine (in words)” value was “inactive”.
`O=C(/C=C/c1ccc(O)c(O)c1)c1cccs1` [1b, (E)-3-(3,4-Dihydroxyphenyl)-1-(thiophen-2-yl)prop-2-en-1-one] showed a melting point of 182.5 to 185.7 °C. Moreover, on mushroom tyrosinase [1] (setting [6]), the IC50 came out at 103 ± 8.47 µM. Moreover, on mushroom tyrosinase [1] (setting [7]), the IC50 came to 75.7 ± 2.46 µM.
The compound `O=C(/C=C/c1ccc(O)c(Br)c1)c1cccs1` [1g, (E)-3-(3-Bromo-4-hydroxyphenyl)-1-(thiophen-2-yl)prop-2-en-1-one] came in with a melting point of 195.2 to 199.6 °C. For the same compound, the IC50 on mushroom tyrosinase [1] (setting [6]) is 112 ± 14.3 µM. In addition, the “tyrosinase inhibitory activity toward L-tyrosine (in words)” value in the series on mushroom tyrosinase [1] (substrate L-tyrosine) was “inactive”.
Consider `O=C(/C=C/c1ccc(O)cc1O)c1cccs1` [1c, (E)-3-(2,4-Dihydroxyphenyl)-1-(thiophen-2-yl)prop-2-en-1-one], for which the melanin contents came out at 107.29% in the series on B16F10 melanoma cells [2] (0.04 μM), 98.15% with B16F10 melanoma cells [2] (0.2 μM) and 88.09% with B16F10 melanoma cells [2] (1 μM). The Ki on mushroom tyrosinase [4] (substrate L-DOPA) stood at 1.76 µM; at mushroom tyrosinase [4] (substrate L-tyrosine) it was 0.00501 µM. Besides, the Inhibition type result in the series on mushroom tyrosinase [4] (substrate L-DOPA) and in the series on mushroom tyrosinase [4] (substrate L-tyrosine) was “competitive inhibition” in each case. Further, the IC50 at mushroom tyrosinase [1] (setting [6]) turned out to be 0.93 ± 0.22 µM. Moreover, in the series with B16F10 melanoma cells [5], the “cytotoxicity (cell viability)” value is listed as “did not show any cytotoxicity”. Moreover, the figures for the intracellular tyrosinase activity in series [3] (0.04 μM), in series [3] (0.2 μM) and in series [3] (1 μM) were 225.78%, 157.79% and 132.71%, respectively.
